pIC50: −log10 of the molar value.

This test has as its target T1, recombinant full-length human prolyl endopeptidase (PREP) (Homo sapiens, UniProt P48147).
T1 construct: To recombinant full-length human prolyl endopeptidase (PREP, R&D-Systems, 4308-SE); purchased R&D-Systems 4308-SE
T1 sequence (P48147 1-710): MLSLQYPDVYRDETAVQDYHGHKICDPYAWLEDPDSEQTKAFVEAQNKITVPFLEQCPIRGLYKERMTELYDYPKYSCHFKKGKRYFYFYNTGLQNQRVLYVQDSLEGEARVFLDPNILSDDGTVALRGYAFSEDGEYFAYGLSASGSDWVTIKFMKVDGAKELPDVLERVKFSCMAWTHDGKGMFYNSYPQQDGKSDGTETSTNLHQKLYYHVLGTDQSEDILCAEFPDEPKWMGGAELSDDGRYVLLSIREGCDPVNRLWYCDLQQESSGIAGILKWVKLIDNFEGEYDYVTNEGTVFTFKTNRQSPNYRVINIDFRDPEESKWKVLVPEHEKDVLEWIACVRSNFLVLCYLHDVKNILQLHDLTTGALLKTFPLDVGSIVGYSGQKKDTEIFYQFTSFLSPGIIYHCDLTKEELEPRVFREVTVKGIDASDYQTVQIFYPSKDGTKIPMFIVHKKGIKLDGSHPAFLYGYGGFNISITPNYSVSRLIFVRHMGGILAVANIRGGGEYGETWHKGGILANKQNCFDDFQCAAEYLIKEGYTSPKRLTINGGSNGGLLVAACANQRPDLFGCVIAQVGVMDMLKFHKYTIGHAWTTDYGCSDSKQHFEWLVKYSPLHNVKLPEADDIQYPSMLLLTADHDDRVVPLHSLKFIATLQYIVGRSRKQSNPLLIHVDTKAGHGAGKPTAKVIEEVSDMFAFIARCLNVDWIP
The experiment in a line: Biochemical human prolyl endopeptidase (PREP) assay with fluorescently labelled substrate. To be noted: substrate Z-Gly-Pro-AMC 50 μM, 32° C., 60 min; some as mean values from multiple independent determinations. The procedure, abridged:
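Initial rates of fluorescence increase from 50 μM Z-Gly-Pro-AMC cleavage (ex 360/em 465 nm, 60 min, 32° C) give percent PREP activity versus no-compound control, and IC50 is interpolated. Enzyme used at 0.4 nM (final, example) in Tris pH 7.5 with EDTA, GSH, BSA and Brij-35; compounds span 1 nM to 30 μM.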
In general, pIC50 refers to the IC50 on a negative log10 scale, so that one unit is a factor of ten. In the case of `O=C(C1CCc2nn(Cc3ccnc(C(F)(F)F)c3F)c(=O)n21)N1C[C@@H](F)[C@@H](F)C1` (single isomer, unassigned) [Example 177], the pIC50 was 8.16.

Take `O=C(C1CCc2nn(Cc3ccnc(C(F)(F)F)c3F)c(=O)n21)N1CC[C@H](F)C1` (single isomer, unassigned) [Example 179]: the pIC50 was 6.22.

For the compound `O=C(C1CCc2nn(Cc3ccnc(C(F)(F)F)c3F)c(=O)n21)N1CC[C@H](F)C1` (single isomer, unassigned) [Example 180], the pIC50 is 8.49.

Turning to `O=C([C@@H]1CCCc2nn(CC3CCC(C(F)(F)F)CC3)c(=O)n21)N1CCCC1` (single isomer, unassigned) [Example 185], the pIC50 was 9.43.

As to `O=C([C@@H]1CCCc2nn(CC3CCC(C(F)(F)F)CC3)c(=O)n21)N1CCCC1` (single isomer, unassigned) [Example 186], the pIC50 is 8.90.

Take `Cc1ccc(Cn2nc3n(c2=O)[C@H](C(=O)N2CCC4CC42)CCC3)cc1` (single isomer, unassigned) [Example 188]: the pIC50 was 10.04.

For `Cc1ccc(Cn2nc3n(c2=O)[C@H](C(=O)N2CCC4CC42)CCC3)cc1` (single isomer, unassigned) [Example 189], the pIC50 is 7.47.

`Cc1ccc(Cn2nc3n(c2=O)[C@H](C(=O)N2CC[S+]([O-])C2)CCC3)cc1` (single isomer, unassigned) [Example 193]: the pIC50 was 9.38.

Regarding `Cc1ccc(Cn2nc3n(c2=O)[C@H](C(=O)N2CC[S+]([O-])C2)CCC3)cc1` (single isomer, unassigned) [Example 194], the pIC50 is 9.43.

Regarding `O=C([C@@H]1CCCc2nn(Cc3ccc(Cl)nc3)c(=O)n21)N1CCC2CC21` (single isomer, unassigned) [Example 197], the pIC50 was 6.63.

As for `O=C([C@@H]1CCCc2nn(Cc3ccc(Cl)nc3)c(=O)n21)N1CCC2CC21` (single isomer, unassigned) [Example 198], the pIC50 is 8.99.

In the case of `O=C([C@@H]1CCCc2nn(Cc3ccc(C(F)(F)F)nc3)c(=O)n21)N1CCC2CC21` (single isomer, unassigned) [Example 200], the pIC50 was 6.34.

On to `O=C([C@@H]1CCCc2nn(Cc3ccc(C(F)(F)F)nc3)c(=O)n21)N1CCC2CC21` (single isomer, unassigned) [Example 201], for which the pIC50 is 8.26.

For the compound `O=C([C@@H]1CCCc2nn(Cc3ccc(F)c(Cl)c3)c(=O)n21)N1CCC2CC21` (single isomer, unassigned) [Example 202], the pIC50 was 7.72.

With `O=C([C@@H]1CCCc2nn(Cc3ccc(F)c(Cl)c3)c(=O)n21)N1CCC2CC21` (single isomer, unassigned) [Example 203], the pIC50 is 9.09.

Take `CC(c1ccc(C(F)(F)F)nc1)n1nc2n(c1=O)[C@H](C(=O)N1CC[C@H](F)C1)CCC2` (single isomer, unassigned) [Example 216]: the pIC50 is 9.25.

Turning to `CC(c1ccc(C(F)(F)F)nc1)n1nc2n(c1=O)[C@H](C(=O)N1CC[C@H](F)C1)CCC2` (single isomer, unassigned) [Example 217], the pIC50 was 8.92.

`CC(c1ccc(C(F)(F)F)nc1)n1nc2n(c1=O)[C@H](C(=O)N1C[C@@H](F)[C@@H](F)C1)CCC2` (single isomer, unassigned) [Example 218]: the pIC50 is 8.48.

On to `CC(c1ccc(C(F)(F)F)nc1)n1nc2n(c1=O)[C@H](C(=O)N1C[C@@H](F)[C@@H](F)C1)CCC2` (single isomer, unassigned) [Example 219], for which the pIC50 was 8.14.

For `CC1CCC(C(=O)N2CC[C@H](F)C2)n2c1nn(Cc1ccc(C(F)(F)F)nc1)c2=O` (single isomer, unassigned) [Example 221], the pIC50 is 6.01.

Turning to `CC1CCC(C(=O)N2CC[C@H](F)C2)n2c1nn(Cc1ccc(C(F)(F)F)nc1)c2=O` (single isomer, unassigned) [Example 222], the pIC50 is 8.96.

On to `Cc1ccc(Cn2nc3n(c2=O)C(C(=O)N2CCCC2)CC(C(F)(F)F)C3)cc1` (single isomer, unassigned) [Example 225, (5RS,7RS)-2-(4-Methylbenzyl)-5-(pyrrolidin-1-ylcarbonyl)-7-(trifluoromethyl)-5,6,7,8-tetrahydro[1,2,4]triazolo[4,3-a]pyridin-3(2H)-one], for which the pIC50 is 9.64.

Consider `Cc1ccc(Cn2nc3n(c2=O)C(C(=O)N2CCCC2)CC(C(F)(F)F)C3)cc1` (single isomer, unassigned) [Example 226, (5RS,7RS)-2-(4-Methylbenzyl)-5-(pyrrolidin-1-ylcarbonyl)-7-(trifluoromethyl)-5,6,7,8-tetrahydro[1,2,4]triazolo[4,3-a]pyridin-3(2H)-one], for which the pIC50 was 8.44.

Take `O=C(C1CC(C(F)(F)F)Cc2nn(Cc3ccc(Cl)nc3)c(=O)n21)N1CCCC1` (single isomer, unassigned) [Example 227, (5RS,7RS)-2-[(6-Chloropyridin-3-yl)methyl]-5-(pyrrolidin-1-ylcarbonyl)-7-(trifluoromethyl)-5,6,7,8-tetrahydro[1,2,4]triazolo[4,3-a]pyridin-3(2H)-one]: the pIC50 was 7.62.

`O=C(C1CC(C(F)(F)F)Cc2nn(Cc3ccc(Cl)nc3)c(=O)n21)N1CCCC1` (single isomer, unassigned) [Example 228, (5RS,7RS)-2-[(6-Chloropyridin-3-yl)methyl]-5-(pyrrolidin-1-ylcarbonyl)-7-(trifluoromethyl)-5,6,7,8-tetrahydro[1,2,4]triazolo[4,3-a]pyridin-3(2H)-one]: the pIC50 is 8.66.

`O=C(C1CC(C(F)(F)F)Cc2nn(Cc3ccc(Cl)nc3)c(=O)n21)N1CCCC1` (single isomer, unassigned) [Example 229, (5RS,7RS)-2-[(6-Chloropyridin-3-yl)methyl]-5-(pyrrolidin-1-ylcarbonyl)-7-(trifluoromethyl)-5,6,7,8-tetrahydro[1,2,4]triazolo[4,3-a]pyridin-3(2H)-one]: the pIC50 is 9.47.

For `O=C(C1CC(C(F)(F)F)Cc2nn(Cc3ccc(Cl)nc3)c(=O)n21)N1CCC(F)(F)C1` (single isomer, unassigned) [Example 231, (5RS,7RS)-2-[(6-Chloropyridin-3-yl)methyl]-5-[(3,3-difluoropyrrolidin-1-yl)carbonyl]-7-(trifluoromethyl)-5,6,7,8-tetrahydro[1,2,4]triazolo[4,3-a]pyridin-3(2H)-one], the pIC50 was 7.32.

Take `O=C(C1CC(C(F)(F)F)Cc2nn(Cc3ccc(Cl)nc3)c(=O)n21)N1CCC(F)(F)C1` (single isomer, unassigned) [Example 232, (5RS,7RS)-2-[(6-Chloropyridin-3-yl)methyl]-5-[(3,3-difluoropyrrolidin-1-yl)carbonyl]-7-(trifluoromethyl)-5,6,7,8-tetrahydro[1,2,4]triazolo[4,3-a]pyridin-3(2H)-one]: the pIC50 was 6.40.

On to `O=C(C1CC(C(F)(F)F)Cc2nn(Cc3ccc(C(F)(F)F)nc3)c(=O)n21)N1CC(O)C1` (single isomer, unassigned) [Example 234, (5RS,7RS)-5-[(3-Hydroxyazetidin-1-yl)carbonyl]-7-(trifluoromethyl)-2-{[6-(trifluoromethyl)pyridin-3-yl]methyl}-5,6,7,8-tetrahydro[1,2,4]triazolo[4,3-a]pyridin-3(2H)-one], for which the pIC50 is 6.92.

For the compound `O=C([C@@H]1C[C@@H](C(F)(F)F)Cc2nn(Cc3ccc(C(F)(F)F)nc3)c(=O)n21)N1CC[C@H](F)C1` (single isomer, unassigned) [Example 237], the pIC50 is 9.03.

With `O=C(C1CC(C(F)(F)F)Cc2nn(Cc3ccc(Cl)nc3)c(=O)n21)N1CC(F)C1` (single isomer, unassigned) [Example 238, (5RS,7RS)-2-[(6-Chloropyridin-3-yl)methyl]-5-[(3-fluoroazetidin-1-yl)carbonyl]-7-(trifluoromethyl)-5,6,7,8-tetrahydro[1,2,4]triazolo[4,3-a]pyridin-3(2H)-one], the pIC50 is 7.14.

As to `O=C(C1CC(C(F)(F)F)Cc2nn(Cc3ccc(Cl)nc3)c(=O)n21)N1CC(F)C1` (single isomer, unassigned) [Example 239, (5RS,7RS)-2-[(6-Chloropyridin-3-yl)methyl]-5-[(3-fluoroazetidin-1-yl)carbonyl]-7-(trifluoromethyl)-5,6,7,8-tetrahydro[1,2,4]triazolo[4,3-a]pyridin-3(2H)-one], the pIC50 is 7.95.

As for `O=C(C1CC(C(F)(F)F)Cc2nn(Cc3ccc(Cl)nc3)c(=O)n21)N1CC(F)C1` (single isomer, unassigned) [Example 240, (5RS,7RS)-2-[(6-Chloropyridin-3-yl)methyl]-5-[(3-fluoroazetidin-1-yl)carbonyl]-7-(trifluoromethyl)-5,6,7,8-tetrahydro[1,2,4]triazolo[4,3-a]pyridin-3(2H)-one], the pIC50 is 8.38.

Source of the values: patent US10722501B2 (BAYER AKTIENGESELLSCHAFT, priority 2016, dated 2020).
